From patent publication EP2272817A1, “PAI-1 INHIBITOR” (Institute of Medicinal Molecular Design, Inc., priority 2008, dated 2009) come the findings set out here.

Chain of recombinant human PAI-1 (P05121 24-402): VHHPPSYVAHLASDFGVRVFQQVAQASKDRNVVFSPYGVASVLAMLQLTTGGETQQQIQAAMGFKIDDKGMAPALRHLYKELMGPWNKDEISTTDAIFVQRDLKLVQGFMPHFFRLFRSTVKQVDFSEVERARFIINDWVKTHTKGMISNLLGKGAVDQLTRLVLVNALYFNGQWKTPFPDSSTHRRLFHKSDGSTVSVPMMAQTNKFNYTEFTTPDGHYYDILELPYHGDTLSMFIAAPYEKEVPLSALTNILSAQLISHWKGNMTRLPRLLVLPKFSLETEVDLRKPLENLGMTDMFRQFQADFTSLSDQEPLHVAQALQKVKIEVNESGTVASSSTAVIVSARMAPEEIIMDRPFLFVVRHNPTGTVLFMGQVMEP

The target in this assay is recombinant human PAI-1 (Homo sapiens, UniProt P05121). As to the kind of experiment: Test Example 2: Human PAI-1 Inhibitory Activity (pH 7.4 HEPES buffer, 10 minutes incubation with two-chain tPA). Format: biochemical. More on the design: purchased Molecular Innovations, Inc. Particulars: read-out: Inhibition Rate of PAI-1 Activity (%). On the procedure:
0.1 M HEPES, 0.1 M NaCl. 1 mM EDTA. 0.1 % Polyethylene glycol 8,000 (Hampton Research Corporation),
2 mM Dimethyldecylphoshine oxide [Apo-10] (Fluka Corporation)
Take `CC(C)(C)c1ccc(CN(C(=O)C(=O)O)c2ccc(N3CCN(c4ccccc4)CC3)cc2)cc1` [Compound 627]: the inhibition at 1 µM is 0%, the inhibition at 3 µM worked out at 14%, the inhibition at 10 µM was determined as 57% and the inhibition at 25 µM was above 99%.

Consider `CC(C)(C)c1ccc(CN(C(=O)C(=O)O)c2ccc(N3CCN(c4ccc(OC(F)(F)F)cc4)CC3)cc2)cc1` [Compound 628], for which the inhibition at 1 µM came to 40%, the inhibition at 3 µM was above 99%, the inhibition at 10 µM is above 99% and the inhibition at 25 µM stood at 90%.

On to `O=C(O)C(=O)N(Cc1ccc(-c2ccc(OC(F)(F)F)cc2)cc1)c1ccccc1-c1ccccc1` [Compound 632], for which the inhibition at 0.1 µM stood at 0%, the inhibition at 0.3 µM worked out at 9%, the inhibition at 1 µM is 31% and the inhibition at 3 µM was 97%.

In the case of `O=C(O)CCCCCCOc1ccc(-c2ccc(OC(F)(F)F)cc2)cc1N(CCCCc1ccccc1)C(=O)C(=O)O` [Compound 633], the inhibition at 0.1 µM was determined as 11%, the inhibition at 0.3 µM worked out at 11%, the inhibition at 1 µM was 39% and the inhibition at 3 µM came out at 61%.

As to `O=C(O)C(=O)N(CCCCc1ccccc1)c1cc(-c2ccc(OC(F)(F)F)cc2)ccc1OC1C2CC3CC(C2)CC1C3` (stereo not drawn) [Compound 634], the inhibition at 0.1 µM worked out at 17%, the inhibition at 0.3 µM was determined as 37%, the inhibition at 1 µM was above 99% and the inhibition at 3 µM was 92%.

For `CC(C)(C)c1ccc(Oc2cc(-c3ccc(OC(F)(F)F)cc3)ccc2N(CCCCc2ccccc2)C(=O)C(=O)O)cc1` [Compound 635], the inhibition at 0.1 µM came to 14%, the inhibition at 0.3 µM was 30%, the inhibition at 1 µM stood at 45% and the inhibition at 3 µM worked out at 91%.

For the molecule `CC(C)(C)c1ccc(Oc2ccc(-c3ccc(OC(F)(F)F)cc3)cc2N(CCCCc2ccccc2)C(=O)C(=O)O)cc1` [Compound 636], the inhibition at 0.1 µM was found to be 2%, the inhibition at 0.3 µM was 21%, the inhibition at 1 µM is 72% and the inhibition at 3 µM was found to be 81%.

With `CCCCC1CCC(Oc2ccc(-c3ccc(OC(F)(F)F)cc3)cc2N(CCCCc2ccccc2)C(=O)C(=O)O)CC1` (stereo not drawn) [Compound 637], the inhibition at 0.1 µM stood at 0%, the inhibition at 0.3 µM stood at 5%, the inhibition at 1 µM was 80% and the inhibition at 3 µM came to 71%.

Turning to `O=C(O)C(=O)N(CCCCc1ccccc1)c1cc(-c2ccc(OC(F)(F)F)cc2)ccc1Oc1ccccc1` [Compound 638], the inhibition at 0.1 µM turned out to be 5%, the inhibition at 0.3 µM stood at 15%, the inhibition at 1 µM came out at 57% and the inhibition at 3 µM was above 99%.

`CC(C)[C@@H]1CC[C@@H](C)C[C@H]1Oc1ccc(-c2ccc(OC(F)(F)F)cc2)cc1N(CCCCc1ccccc1)C(=O)C(=O)O` [Compound 639]: the inhibition at 0.1 µM worked out at 6%, the inhibition at 0.3 µM stood at 12%, the inhibition at 1 µM is 91% and the inhibition at 3 µM was 87%.

For the molecule `CCCCCOc1ccc(-c2ccc(OC(F)(F)F)cc2)cc1N(CCCCc1ccccc1)CC(=O)O` [Compound 640], the inhibition at 0.1 µM is 0%, the inhibition at 0.3 µM came to 19%, the inhibition at 1 µM is 92% and the inhibition at 3 µM came to 92%.

Turning to `CCCCC(C(=O)O)N(Cc1ccc(C(C)(C)C)cc1)c1cccc(-c2ccc(OC(F)(F)F)cc2)c1` (stereo not drawn) [Compound 641], the inhibition at 0.1 µM was found to be 9%, the inhibition at 0.3 µM is 53%, the inhibition at 1 µM worked out at 95% and the inhibition at 3 µM was determined as 95%.

Turning to `CCCCC(C(=O)O)N(Cc1ccc(C(C)(C)C)cc1)c1ccc(-c2ccc(OC(F)(F)F)cc2)cc1` (stereo not drawn) [Compound 642], the inhibition at 0.1 µM was 16%, the inhibition at 0.3 µM is 57%, the inhibition at 1 µM came to 94% and the inhibition at 3 µM worked out at 93%.

On to `CCCCCOc1ccc(-c2ccc(OC(F)(F)F)cc2)cc1CN(C(=O)C(=O)O)c1ccc(C(C)(C)C)cc1` [Compound 645], for which the inhibition at 0.1 µM is 6%, the inhibition at 0.3 µM was 26%, the inhibition at 1 µM was determined as 95% and the inhibition at 3 µM was above 99%.

For `O=C(O)CCCCCCCCOc1ccc(-c2ccc(OC(F)(F)F)cc2)cc1N(CCCCc1ccccc1)C(=O)C(=O)O` [Compound 646], the inhibition at 0.1 µM was found to be 4%, the inhibition at 0.3 µM was found to be 15%, the inhibition at 1 µM was 38% and the inhibition at 3 µM was found to be 86%.

As for `CCCCCOc1ccc(-c2ccc(OC(F)(F)F)cc2)cc1CN(CC(=O)O)c1ccc(C(C)(C)C)cc1` [Compound 647], the inhibition at 0.1 µM was 27%, the inhibition at 0.3 µM was found to be 43%, the inhibition at 1 µM came out at 95% and the inhibition at 3 µM was found to be 98%.

Consider `CCCCCOc1cc(-c2ccc(OC(F)(F)F)cc2)ccc1CN(C(=O)C(=O)O)c1ccc(C(C)(C)C)cc1` [Compound 648], for which the inhibition at 0.1 µM amounted to 4%, the inhibition at 0.3 µM amounted to 23%, the inhibition at 1 µM is 86% and the inhibition at 3 µM was 89%.

On to `CCCCCOc1cc(-c2ccc(OC(F)(F)F)cc2)ccc1CN(CC(=O)O)c1ccc(C(C)(C)C)cc1` [Compound 649], for which the inhibition at 0.1 µM was found to be 10%, the inhibition at 0.3 µM turned out to be 64%, the inhibition at 1 µM was found to be 96% and the inhibition at 3 µM turned out to be 97%.

For `CCCCCCCOc1cc(N(CCCCc2ccccc2)C(=O)C(=O)O)ccc1-c1ccc(OC(F)(F)F)cc1` [Compound 650], the inhibition at 0.1 µM came to 16%, the inhibition at 0.3 µM is 40%, the inhibition at 1 µM was above 99% and the inhibition at 3 µM is above 99%.

As to `COc1ccc(-c2ccc(OC(F)(F)F)cc2)cc1N(CCCCc1ccccc1)C(=O)C(=O)O` [Compound 651], the inhibition at 0.1 µM worked out at 0%, the inhibition at 0.3 µM was determined as 0%, the inhibition at 1 µM was determined as 15% and the inhibition at 3 µM worked out at 74%.

In the case of `CCCCCOc1cc(N(CCCCc2ccccc2)C(=O)C(=O)O)ccc1-c1ccc(OC(F)(F)F)cc1` [Compound 654], the inhibition at 0.1 µM worked out at 4%, the inhibition at 0.3 µM was found to be 19%, the inhibition at 1 µM was above 99% and the inhibition at 3 µM is above 99%.

With `CCCCCOc1ccc(-c2ccc(OC(F)(F)F)cc2)cc1N(CCCOCc1ccccc1)C(=O)C(=O)O` [Compound 655], the inhibition at 0.1 µM is 3%, the inhibition at 0.3 µM turned out to be 0%, the inhibition at 1 µM turned out to be 44% and the inhibition at 3 µM was determined as 97%.

For the molecule `O=C(O)C(=O)N(CCCCc1ccccc1)c1cc(-c2ccc(OC(F)(F)F)cc2)ccc1OCCCC1CCCCC1` [Compound 656], the inhibition at 0.1 µM was 24%, the inhibition at 0.3 µM is 64%, the inhibition at 1 µM was determined as 95% and the inhibition at 3 µM was found to be 88%.

In the case of `CCCCCN(C(=O)C(=O)O)c1cc(-c2ccc(OC(F)(F)F)cc2)ccc1OCCCOc1ccccc1` [Compound 657], the inhibition at 0.1 µM was 15%, the inhibition at 0.3 µM is 20%, the inhibition at 1 µM came out at 99% and the inhibition at 3 µM is above 99%.

As to `O=C(O)C(=O)N(CCCCc1ccccc1)c1cc(-c2ccc(OC(F)(F)F)cc2)ccc1OC1CCCC1` [Compound 658], the inhibition at 0.1 µM turned out to be 9%, the inhibition at 0.3 µM was 20%, the inhibition at 1 µM worked out at 97% and the inhibition at 3 µM is above 99%.

As to `O=C(O)C(=O)N(CCCCc1ccccc1)c1cc(-c2ccc(OC(F)(F)F)cc2)ccc1OC1CCCCCC1` [Compound 659], the inhibition at 0.1 µM amounted to 12%, the inhibition at 0.3 µM was found to be 26%, the inhibition at 1 µM was above 99% and the inhibition at 3 µM was 96%.

As for `O=C(O)C(=O)N(Cc1ccc2ccccc2c1)c1ccc(-c2ccc(OC(F)(F)F)cc2)cc1` [Compound 661], the inhibition at 0.1 µM stood at 6%, the inhibition at 0.3 µM turned out to be 11%, the inhibition at 1 µM is 27% and the inhibition at 3 µM is above 99%.

For `Cc1cc(C)cc(COc2ccc(-c3ccc(OC(F)(F)F)cc3)cc2N(CCCCc2ccccc2)C(=O)C(=O)O)c1` [Compound 662], the inhibition at 0.1 µM was 18%, the inhibition at 0.3 µM stood at 28%, the inhibition at 1 µM turned out to be 98% and the inhibition at 3 µM stood at 95%.

On to `CC(C)(C)[C@H]1CC[C@H](N(C(=O)C(=O)O)c2ccc(-c3ccc(OC(F)(F)F)cc3)cc2)CC1` [Compound 665], for which the inhibition at 0.1 µM amounted to 9%, the inhibition at 0.3 µM was found to be 8%, the inhibition at 1 µM was found to be 67% and the inhibition at 3 µM was above 99%.

In the case of `CC(C)(C)[C@H]1CC[C@@H](N(C(=O)C(=O)O)c2ccc(-c3ccc(OC(F)(F)F)cc3)cc2)CC1` [Compound 666], the inhibition at 0.1 µM was determined as 0%, the inhibition at 0.3 µM was found to be 21%, the inhibition at 1 µM stood at 89% and the inhibition at 3 µM turned out to be 98%.

For `CCCCCCCCCCN(C(=O)C(=O)O)c1ccc(-c2ccc(OC(F)(F)F)cc2)cc1` [Compound 669], the inhibition at 0.1 µM turned out to be 28%, the inhibition at 0.3 µM was 34%, the inhibition at 1 µM is above 99% and the inhibition at 3 µM was above 99%.

Turning to `CCCCCOc1ccc(-c2ccc(OC(F)(F)F)cc2)cc1N(CCCCc1cc(C)ccc1C)C(=O)C(=O)O` [Compound 670], the inhibition at 0.1 µM was 6%, the inhibition at 0.3 µM stood at 55%, the inhibition at 1 µM worked out at 97% and the inhibition at 3 µM is 94%.

For `O=C(O)C(=O)N(CCCCc1ccccc1)c1ccc(-c2ccc3ccccc3c2)cc1` [Compound 671], the inhibition at 0.1 µM came to 26%, the inhibition at 0.3 µM turned out to be 12%, the inhibition at 1 µM turned out to be 23% and the inhibition at 3 µM came to 92%.

Broadly, the inhibition is the drop in the measured response relative to a control, in per cent.
